Assay results published in patent US20140206763A1, “PHENYLBUTYRATE FOR TREATMENT OF SPORADIC INCLUSION-BODY MYOSITIS AND DISORDERS RELATING TO AUTOPHAGY IMPAIRMENT OR AMYLOID BETA 42 ACCUMULATION” (UNIVERSITY OF SOUTHERN CALIFORNIA, priority 2013, published 2014).
Entries after “also recorded” stand apart in the source; their conditions may differ.

Experiments:
[1] = patients with urea cycle-disorders, compared with NaPB; cited from earlier work
[2] = test system: cultured human muscle fibers (CHMFs); assay: Vacuolization of cultured human muscle fibers by phase-contrast microscopy; format: cell-based; details: for vacuolization of chloroquine-exposed CHMFs: chloroquine 50 μM 24 hours + NaPB 15 mM, vs chloroquine alone; for vacuolization of CHMFs after exposure to lysosomal inhibitor alone: exposure alone 24 hours, vs control CHMFs
Protocol: (§1) Primary cultures of normal human muscle were established as routinely performed in our laboratory (Askanas and Engel, 1992) from archived satellite cells of portions of diagnostic muscle biopsies from patients who, after all tests were performed, were considered free of muscle disease. Each experiment was performed on 3-9 different culture sets, each established from satellite cells derived from a different muscle biopsy. 10-15 days after myoblast fusion, the well-differentiated myotubes were, as previously described (Nogalska et al., 2012; Nogalska et al., 2010b), exposed for 24 hours to either: a) chloroquine (Chl), a lysosomotropic agent raising lysosomal pH and inhibiting activities of cathepsins (Shacka et al., 2006) (50 μM, Sigma-Aldrich, St. Louis, Mo.); or b) bafilomycin Al (Baf), an inhibitor of lysosomal V-ATPase causing an increase in lysosomal pH and inhibiting activities of cathepsins (Shacka et al., 2006) (25 nM, Sigma-Aldrich). CHMFs were also treated with NaPB (Tocris/R&D Systems, Minneapolis, Minn.) in doses ranging from 1-15 mM, used either alone or together with chloroquine or bafilomycin.

[3] = test system: LC3-II; assay: LC3-II immunoblot with densitometric analysis in CHMFs; format: cell-based, human; details: for increase of LC3-II: exposure to inhibitor alone, vs control CHMFs
Protocol: as §1
(§2) CHMFs were harvested in RIPA buffer and immunoblotted, as previously detailed (D'Agostino et al., 2011; Nogalska et al., 2012; Nogalska et al., 2010b) using antibodies against LC3 (1:500, Novus Biologicals, Littleton, Colo.), p62 (1:100, A-6, Santa Cruz Biotechnology) or NBR1 (1:700). Aβ42 oligomers were studied using 6E10 antibody (1:500, Covance, Princeton, N.J.), as described (Nogalska et al., 2010a). Blots were developed using anti-rabbit or anti-mouse WesternBreeze chemiluminescence kits (Invitrogen). Protein loading was evaluated by the actin band (1:600, C-2, Santa Cruz Biotechnology). Quantification of the immunoreactivity was performed by densitometric analysis using NIH Image J 1.310 software.

[4] = test system: Aβ42 oligomers; assay: Aβ42 oligomers immunoblot (6E10 antibody) in CHMFs; format: cell-based, human
Protocol: Primary cultures of normal human muscle were established as routinely performed in our laboratory (Askanas and Engel, 1992) from archived satellite cells of portions of diagnostic muscle biopsies from patients who, after all tests were performed, were considered free of muscle disease. Each experiment was performed on 3-9 different culture sets, each established from satellite cells derived from a different muscle biopsy. […]
CHMFs were harvested in RIPA buffer and immunoblotted, as previously detailed (D'Agostino et al., 2011; Nogalska et al., 2012; Nogalska et al., 2010b) using antibodies against LC3 (1:500, Novus Biologicals, Littleton, Colo.), p62 (1:100, A-6, Santa Cruz Biotechnology) or NBR1 (1:700). […] Protein loading was evaluated by the actin band (1:600, C-2, Santa Cruz Biotechnology). Quantification of the immunoreactivity was performed by densitometric analysis using NIH Image J 1.310 software.

[5] = test system: p62; assay: p62 immunoblot with densitometric analysis in CHMFs; format: cell-based, human; details: for increase of p62: exposure to inhibitor alone, vs control CHMFs
Protocol: as §1, §2

[6] = test system: NBR1; assay: NBR1 immunoblot with densitometric analysis in CHMFs; format: cell-based, human; details: for increase of NBR1 levels: exposure to inhibitor alone, vs control CHMFs
Protocol: as §1, §2

[7] = test system: GFP-LC3; assay: GFP-LC3 puncta count (autophagosome accumulation) in CHMFs; format: cell-based, human
Protocol: To morphologically evaluate accumulation of autophagosomes, three different tissue-culture sets (experiments) were transduced with PremoAutophagy Sensor GFP-LC3 (Invitrogen, Carlsbad, Calif.) according to the manufacturer's instructions. 24 hours later, CHMFs were treated with chloroquine as described above. Counting of the GFP-LC3 puncta in the muscle fibers was performed on all three different culture experiments. Each experiment involved the same three different conditions: control, chloroquine-exposed, and chloroquine-exposed-plus-NaPB-treated cultures. In each experiment, each condition was composed of two cultures. For the analysis, eight random fields per condition of each culture were photographed (magnification ×40) in each of the three experiments. Overall, in each of the three conditions GFP-LC3 puncta were evaluated in more than 80 fibers, independently by two investigators (AN and CD). In addition, GFP-LC3 transduced CHMFs were also processed for immunofluorescence of NBR1 (1:100, 4BR, Santa Cruz Biotechnology, Santa Cruz, Calif.).

[8] = test system: Aβ42; assay: Aβ42 ELISA in CHMFs; format: cell-based, human
Protocol: as §1
To quantify endogenous Aβ42 content in cultured human muscle fibers, we used the “Human β-Amyloid (1-42) ELISA kit, WAKO, High Sensitive” (WAKO Chemicals USA, Inc., Richmond, Va.) as described (Nogalska et al., 2012). Homogenates were freshly prepared in RIPA buffer containing a protease inhibitor cocktail (Roche Diagnostic, Mannheim, Germany). 100 μg of protein per well from each sample were diluted in a Standard Diluent Buffer provided in the kit, added to the assay plates in duplicate, and incubated overnight at 4° C. The ELISA was performed the next day, according to manufacturer's protocol. The absorbance was read at 450 nm.

[9] = test system: γ-secretase; assay: Measurement of γ-secretase activity in CHMFs; format: cell-based, human
Protocol: as §1
γ-secretase activity was measured as previously described (Nogalska et al., 2012). Briefly, cultures were homogenized in PBS buffer with addition of 0.05% CHAPS. The supernatants containing 50 μg of protein were added to the reaction mixture containing assay buffer (50 mM TRIS-HCl pH 6.8, 2 mM EDTA, 0.25% CHAPS). The reaction was initiated by adding a specific synthetic substrate NMA-Amyloid β-Protein (aa708-715)-Lys-(DNP) Arg-Arg-Arg-amide trifluoroacetate salt (10 μM) (Sigma-Aldrich). After overnight incubation at 37° C., the samples were centrifuged at 16,000×g for 15 minutes, supernatants were transferred to a 96-well plate and the fluorescence emission excited at 390 nm was recorded at 444 nm. Activity of γ-secretase was expressed as arbitrary fluorescence units.

[10] = cited from earlier work
[11] = test system: Cathepsin B; assay: Measurement of Cathepsin B activity in CHMFs; format: cell-based, human; details: for reduction of Cathepsin B activity: exposure to inhibitor alone, vs control CHMFs
Protocol: as §1
Cathepsin B [EC 3.4.22.1] activity was measured as described (Nogalska et al., 2010b). Samples were measured in duplicate. All samples were incubated at 37° C. for 45 min, and the fluorescence emission excited at 355 nm was recorded at 444 nm. Activity of cathepsin B was expressed as arbitrary fluorescence units.

[12] = test system: control CHMFs; assay: Morphology and muscle-fiber viability of control CHMFs; format: cell-based, human; details: 15 mM NaPB
Protocol: as §1

[13] = test system: Cathepsin D; assay: Measurement of Cathepsin D activity in CHMF homogenates; format: cell-based, human; details: for reduction of Cathepsin D activity: exposure to inhibitor alone, vs control CHMFs
Protocol: as §1
Cathepsin D [EC 3.4.23.5] activity was measured utilizing a Cathepsin D Assay Kit (Sigma, St. Louis, Mo.) according to manufacturer's instructions and as previously detailed (Nogalska et al., 2010b). Homogenates were prepared in phosphate buffer-saline with addition of CHAPS (0.05%) (Sigma-Aldrich). All samples were measured in duplicate. The fluorescence emission excited at 355 nm was recorded at 405 nm every 2 minutes. Activity of cathepsin D measured in the linear phase of the reaction was expressed as fluorescence-intensity per minute.

[14] = test system: CHMFs; assay: Treatment of CHMFs with HDAC inhibitor compared with PB; format: cell-based, human; details: data not shown
[15] = bafilomycin+NaPB (15 mM) vs bafilomycin alone
[16] = chloroquine+NaPB (15 mM) vs chloroquine alone
[17] = autophagy-impaired cultures, not significantly worse than controls
[18] = bafilomycin+NaPB (15 mM) vs bafilomycin without NaPB
[19] = chloroquine alone vs control CHMFs

O=C(CCCc1ccccc1)OCC(COC(=O)CCCc1ccccc1)OC(=O)CCCc1ccccc1 [GPB, 1,2,3-Propanetriyl tris(4-phenylbutanoate)]
lowering blood ammonia [1]: as effective as NaPB

O=C([O-])CCCc1ccccc1.[Na+] [NaPB, Sodium 4-phenylbutanoate]
vacuolization of bafilomycin-exposed CHMFs ([2]; bafilomycin 25 nM 24 hours + NaPB 15 mM, vs bafilomycin alone): nearly completely prevented their vacuolization; also recorded: morphologically prominent decrease of their vacuolization | vacuolization of chloroquine-exposed CHMFs [2]: virtually completely prevented their vacuolization | vacuolization of chloroquine-exposed CHMFs ([2]; listed as PB): prominently eliminating their vacuolization | decrease of LC3-II [3, 15]: 36% | decrease of LC3-II [3, 16]: 54% | effect on protein level of LC3-II ([3]; control CHMFs, NaPB 1-15 mM): did not exert any effect | lower amount of Aβ42 oligomers [4, 15]: 60% | decrease of Aβ42 oligomers ([4]; chloroquine+NaPB (15 mM) vs autophagy-impaired NaPB-non-treated CHMFs): 65% | decrease of p62 [5, 15]: 83% | decrease of p62 [5, 16]: 74% | effect on p62 at lower dose ([5]; chloroquine-exposed CHMFs, NaPB 5 mM): significantly decreased p62; also recorded: statistically significantly decreased | effect on protein level of p62 ([5]; control CHMFs, NaPB 1-15 mM): did not exert any effect | decrease of NBR1 [6, 15]: 34% | reduction of increased NBR1 [6, 16]: 63% | effect on protein level of NBR1 ([6]; control CHMFs, NaPB 1-15 mM): did not exert any effect | decrease of number of GFP-LC3 foci ([7]; chloroquine+NaPB (15 mM) vs chloroquine-only exposed cultures): 53% | Aβ42 by ELISA value after NaPB treatment compared with controls (ANOVA) [8, 17]: fully corrected | lower amount of Aβ42 by ELISA ([8]; bafilomycin+NaPB (15 mM) vs bafilomycin alone, 2 culture sets, statistical significance not reached): 28% | decrease of Aβ42 by ELISA [8, 16]: 53% | γ-secretase activity value after NaPB treatment compared with controls (ANOVA) [9, 17]: fully corrected | decrease of γ-secretase activity ([9]; chloroquine+NaPB (15 mM) vs untreated autophagy-impaired CHMFs): 56% | tolerability, daily and long-term ([10]; infants, children and adults with urea-cycle disorders): usually well tolerated | tolerability in preliminary trials ([10]; patients with amyotrophic lateral sclerosis (ALS)): well-tolerated | effect on Cathepsin B activity in ER-stress model ([11]; ER-stress-induced CHMFs, data not shown): mitigates the reduction of Cathepsin B activity | higher activity of Cathepsin B [11, 18]: 40% | increase of Cathepsin B activity [11, 16]: 70% | effect on Cathepsin B activity ([11]; control CHMFs, NaPB 1-15 mM): did not exert any effect | adverse morphologic abnormalities and muscle-fiber viability [12]: did not produce either adverse morphologic abnormalities or affect muscle-fiber viability | Cathepsin D value after NaPB treatment compared with controls (ANOVA) [13, 17]: fully corrected | higher activity of Cathepsin D [13, 18]: 15% | increase of Cathepsin D activity [13, 16]: 40% | effect on Cathepsin D activity ([13]; control CHMFs, NaPB 1-15 mM): did not exert any effect

CO/C1=C\C(C)=C\[C@@H](C)[C@@H](O)[C@@H](C)C/C(C)=C/C=C/[C@H](OC)[C@@H]([C@@H](C)[C@@H](O)[C@H](C)[C@@]2(O)C[C@@H](O)[C@H](C)[C@@H](C(C)C)O2)OC1=O [bafilomycin, bafilomycin Al]
vacuolization of CHMFs after exposure to lysosomal inhibitor alone [2]: induced pronounced vacuolization | increase of LC3-II [3]: 17 fold | increase of p62 [5]: 18 fold | increase of NBR1 levels [6]: 9 fold | Aβ42 by ELISA after inhibitor exposure ([8]; Baf-exposed CHMFs, two separate experiments): elevated | reduction of Cathepsin B activity [11]: 85% | reduction of Cathepsin D activity [13]: 25%

CCN(CC)CCCC(C)Nc1ccnc2cc(Cl)ccc12 (centres unmarked) [chloroquine]
vacuolization of CHMFs after exposure to lysosomal inhibitor alone [2]: induced pronounced vacuolization | increase of LC3-II [3]: 9 fold | increase of p62 [5]: 9 fold | increase of NBR1 levels [6]: 5 fold | increase of number of GFP-LC3 foci/puncta per muscle fiber ([7]; exposure alone, vs control CHMFs): 8 fold | increase of Aβ42 by ELISA [8, 19]: 60% | γ-secretase activity after inhibitor exposure [9, 19]: significantly increased γ-secretase activity | reduction of Cathepsin B activity [11]: 60% | reduction of Cathepsin D activity [13]: 40%

CC(/C=C/C(=O)NO)=C\[C@@H](C)C(=O)c1ccc(N(C)C)cc1 [trichostatinA]
ameliorative effect compared with PB [14]: did not have an effect similar to that achieved with PB
